Experimental data: US11612681B2, “Compositions and devices for removal of endotoxins and cytokines from fluids” (priority 2017, dated 2023)

Key:
[1] = Fluorescent polarization assay of FITC-LPS complexation; assay type: binding; details: FITC-LPS 10 μg/mL in PBS
Description: Fluorescent polarization assays. The fluorescence polarization (FP) was measured on the Multi-Mode Microplate Reader (Synergy™ 2, Biotek, VT) equipped with dichroic mirror (510 nm) and polarizing filter. The measurements were carried out on black flat bottom 96-well plates (Nunclon™ Surface, Roskilde, Denmark). The FP of LPS-FITC was record at excitation and emission filter of 485/20 nm and 528/20 nm, respectively. The experiments were performed in triplicate.

[2] = assay type: binding, E. coli; details: 40:1 mass ratio of PMB/LPS
Description: (§1) Electrophoresis Assays. The binding capacities of the telodendrimers with LPS and/or BSA were studied and compared with PMB binding using electrophoresis assay. The electrophoresis was carried out in 1.5% agarose gel (tris-borate-EDTA (TBE) buffer) at constant current of 20 mA for 2 h. The gel was imaged by a Bio-Rad Universal Hood II Imager (Bio-Rad Laboratories, Inc.) under SYBR Green modes or photographed under UV illumination.
as §1, with “assays.” for “Assays.”, “bovine serum albumin (BSA)” for “BSA”, “(Tris-borate-EDTA” for “(tris-borate-EDTA”

## Polymyxin B [PMB]
[1]
  fluorescent polarization of FITC-LPS: only slightly increased
[2]
  stability of LPS complex in electrophoresis: unstable and dissociated
